Measured values published in patent US11643388B2, “Inhibitors of alpha 2 beta 1 integrin and methods of use thereof” (The Regents of the University of California, priority 2020, dated 2023).
pIC50: −log10 of the molar value. In brackets after ≈: the same amount, converted by molar mass.

Key:
Plasma stability (h) = format: in vitro ADME, human; conditions: % remaining at 60 min
Metabolic stability (h) = format: in vitro ADME, human; conditions: % remaining at 45 min
α2β1 [1] = molecular target: T1, α2β1 (Homo sapiens, UniProt P05556+P17301); assay: α2β1 cell adhesion; format: cell-based
T1 sequence (P17301 30-1181): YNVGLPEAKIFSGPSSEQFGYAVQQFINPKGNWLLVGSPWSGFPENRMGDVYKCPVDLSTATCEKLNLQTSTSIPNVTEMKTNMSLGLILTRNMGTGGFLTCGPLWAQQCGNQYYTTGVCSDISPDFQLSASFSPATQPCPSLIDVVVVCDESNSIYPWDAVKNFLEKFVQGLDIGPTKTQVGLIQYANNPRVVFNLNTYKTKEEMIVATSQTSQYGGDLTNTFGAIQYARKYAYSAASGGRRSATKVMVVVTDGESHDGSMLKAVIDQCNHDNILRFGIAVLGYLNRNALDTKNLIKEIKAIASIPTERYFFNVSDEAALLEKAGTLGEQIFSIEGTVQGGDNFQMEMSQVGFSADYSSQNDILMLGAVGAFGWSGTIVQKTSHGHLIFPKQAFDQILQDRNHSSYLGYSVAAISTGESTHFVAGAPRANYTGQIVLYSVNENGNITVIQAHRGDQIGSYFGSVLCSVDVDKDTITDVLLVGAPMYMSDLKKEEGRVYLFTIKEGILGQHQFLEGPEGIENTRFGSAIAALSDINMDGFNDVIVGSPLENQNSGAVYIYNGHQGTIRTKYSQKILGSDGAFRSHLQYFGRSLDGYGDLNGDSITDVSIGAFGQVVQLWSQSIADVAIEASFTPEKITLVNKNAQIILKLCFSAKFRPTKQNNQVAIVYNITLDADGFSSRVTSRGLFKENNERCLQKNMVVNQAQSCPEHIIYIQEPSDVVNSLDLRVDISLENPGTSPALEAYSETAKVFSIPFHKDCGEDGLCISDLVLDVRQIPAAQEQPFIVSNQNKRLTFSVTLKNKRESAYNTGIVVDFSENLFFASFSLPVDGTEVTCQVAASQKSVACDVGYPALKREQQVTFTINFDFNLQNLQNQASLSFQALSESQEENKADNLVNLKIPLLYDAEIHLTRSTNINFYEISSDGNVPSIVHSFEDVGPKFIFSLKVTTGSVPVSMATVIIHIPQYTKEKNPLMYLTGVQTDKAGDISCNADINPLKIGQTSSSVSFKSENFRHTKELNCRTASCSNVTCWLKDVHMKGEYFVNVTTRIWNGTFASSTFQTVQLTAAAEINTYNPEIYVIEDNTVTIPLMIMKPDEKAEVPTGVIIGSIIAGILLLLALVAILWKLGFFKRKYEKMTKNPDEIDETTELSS
T1 sequence (P05556 21-798): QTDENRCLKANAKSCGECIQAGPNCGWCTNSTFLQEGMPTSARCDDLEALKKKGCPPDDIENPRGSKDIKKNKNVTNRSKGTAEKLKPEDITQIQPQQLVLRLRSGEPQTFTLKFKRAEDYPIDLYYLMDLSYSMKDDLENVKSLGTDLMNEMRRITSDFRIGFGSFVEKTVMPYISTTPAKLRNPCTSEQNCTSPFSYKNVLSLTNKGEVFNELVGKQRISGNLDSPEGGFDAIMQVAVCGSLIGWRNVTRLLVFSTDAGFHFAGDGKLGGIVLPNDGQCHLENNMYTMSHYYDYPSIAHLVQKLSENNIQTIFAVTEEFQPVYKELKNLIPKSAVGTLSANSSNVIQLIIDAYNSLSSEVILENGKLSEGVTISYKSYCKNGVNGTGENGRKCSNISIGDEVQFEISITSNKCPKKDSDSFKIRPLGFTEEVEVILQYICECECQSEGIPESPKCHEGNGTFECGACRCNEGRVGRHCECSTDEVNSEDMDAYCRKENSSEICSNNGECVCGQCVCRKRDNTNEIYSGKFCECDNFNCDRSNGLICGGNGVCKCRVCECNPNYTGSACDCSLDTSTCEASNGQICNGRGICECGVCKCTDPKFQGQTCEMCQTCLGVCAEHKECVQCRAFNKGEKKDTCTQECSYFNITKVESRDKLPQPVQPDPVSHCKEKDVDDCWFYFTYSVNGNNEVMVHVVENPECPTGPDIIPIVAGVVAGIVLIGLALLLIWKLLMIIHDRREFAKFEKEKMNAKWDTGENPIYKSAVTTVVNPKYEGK

Caco-2 permeability = format: in vitro ADME; conditions: human; for Papp A→B: A-B direction; for Papp B→A: B-A direction
α4β1 = α4β1 (Homo sapiens, UniProt P05556+P13612); assay: α4β1 cell adhesion; format: cell-based
α4β1, sequence (P13612 34-1032): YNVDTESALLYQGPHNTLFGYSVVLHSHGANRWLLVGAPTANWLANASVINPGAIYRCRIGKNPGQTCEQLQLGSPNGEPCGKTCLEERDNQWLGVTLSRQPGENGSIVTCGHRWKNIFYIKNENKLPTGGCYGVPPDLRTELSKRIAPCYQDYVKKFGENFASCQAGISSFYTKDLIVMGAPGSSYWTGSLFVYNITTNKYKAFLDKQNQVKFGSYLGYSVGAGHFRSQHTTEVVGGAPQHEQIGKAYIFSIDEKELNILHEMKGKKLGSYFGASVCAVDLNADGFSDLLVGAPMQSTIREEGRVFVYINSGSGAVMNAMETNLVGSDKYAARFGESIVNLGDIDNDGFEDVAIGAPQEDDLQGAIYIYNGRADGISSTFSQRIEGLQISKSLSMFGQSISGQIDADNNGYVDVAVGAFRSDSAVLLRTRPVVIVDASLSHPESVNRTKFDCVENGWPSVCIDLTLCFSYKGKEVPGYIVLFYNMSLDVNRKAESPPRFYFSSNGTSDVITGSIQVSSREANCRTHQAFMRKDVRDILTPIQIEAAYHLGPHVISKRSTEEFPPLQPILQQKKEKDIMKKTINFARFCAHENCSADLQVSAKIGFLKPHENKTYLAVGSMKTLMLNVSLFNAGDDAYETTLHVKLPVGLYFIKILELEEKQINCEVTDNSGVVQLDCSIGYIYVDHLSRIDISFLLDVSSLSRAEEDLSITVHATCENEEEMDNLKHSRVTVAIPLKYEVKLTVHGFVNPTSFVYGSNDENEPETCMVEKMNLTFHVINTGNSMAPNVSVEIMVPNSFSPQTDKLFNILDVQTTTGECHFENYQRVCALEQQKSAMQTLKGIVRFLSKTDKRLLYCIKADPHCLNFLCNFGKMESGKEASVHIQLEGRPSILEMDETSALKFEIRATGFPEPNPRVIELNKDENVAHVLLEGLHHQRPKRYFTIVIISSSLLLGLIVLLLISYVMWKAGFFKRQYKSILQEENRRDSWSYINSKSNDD
α4β1, sequence (P05556 21-798): as the sequence (P05556 21-798) above

[2] = Kinetic solubility (aqueous); format: physicochemical; conditions: kinetic from dmso stock, read-out: Kinetic Solubility (Aq)
α2β1 [3] = molecular target: T1, α2β1; assay: α2β1 cell adhesion assay; format: cell-based

## O=C(NC[C@H](NC(=O)c1c(Cl)ccc(Nc2ncc3ccccc3n2)c1Cl)C(=O)O)N[C@@H]1CCc2ccccc21 [SU15210-0076-01, (S)-2-(2,6-dichloro-3-(quinazolin-2-ylamino)benzamido)-3-(3-((R)-2,3-dihydro-1H-inden-1-yl)ureido)propanoic Acid]
Plasma stability (h)
  Plasma Stab(h) % rem/60 min: 55.6%
Metabolic stability (h)
  Met Stab(h) % rem/45 min: 96.3%
α2β1 [1]
  pIC50: > 6.30
Caco-2 permeability
  Papp A→B: 0.2 ×10⁻⁶ cm/s
  Papp B→A: 24.2 ×10⁻⁶ cm/s
α4β1
  pIC50: 5.54

## O=C(NC[C@H](NC(=O)c1c(Cl)ccc(N2CC(c3ccccc3)C2)c1Cl)C(=O)O)N[C@@H]1CCc2ccccc21 [SU15210-0080-01, (S)-2-(2,6-dichloro-3-(3-phenylazetidin-1-yl)benzamido)-3-(3-((R)-2,3-dihydro-1H-inden-1-yl)ureido)propanoic Acid]
α2β1 [1]
  pIC50: > 6.30
α4β1
  pIC50: 4.43

## O=C(NC[C@H](NC(=O)c1c(Cl)cc(C(=O)NCc2cccc(O)c2)cc1Cl)C(=O)O)N[C@@H]1CCc2ccccc21 [SU15210-0095-01, (S)-2-(2,6-dichloro-4-(3-hydroxybenzylcarbamoyl)benzamido)-3-(3-((R)-2,3-dihydro-1H-inden-1-yl)ureido)propanoic Acid]
Plasma stability (h)
  Plasma Stab(h) % rem/60 min: 99.4%
Metabolic stability (h)
  Met Stab(h) % rem/45 min: 99.6%
α2β1 [1]
  pIC50: > 6.30
Caco-2 permeability
  Papp A→B: 3.2 ×10⁻⁶ cm/s
  Papp B→A: 1.6 ×10⁻⁶ cm/s
α4β1
  pIC50: 4.68

## O=C(NC[C@H](NC(=O)c1c(Cl)ccc(NCCCc2ccccc2)c1Cl)C(=O)O)N[C@@H]1CCc2ccccc21 [SU15210-0098-01, (S)-2-(2,6-dichloro-3-(3-phenylpropylamino)benzamido)-3-(3-((R)-2,3-dihydro-1H-inden-1-yl)ureido)propanoic Acid]
α2β1 [1]
  pIC50: > 6.30
α4β1
  pIC50: 4.49

## O=C(Cc1cccc(Cl)c1)Nc1ccc(Cl)c(C(=O)N[C@@H](CNC(=O)N[C@@H]2CCc3ccccc32)C(=O)O)c1Cl [SU15210-0099-01, (S)-2-(2,6-dichloro-3-(2-(3-chlorophenyl)acetamido)benzamido)-3-(3-((R)-2,3-dihydro-1H-inden-1-yl)ureido)propanoic Acid]
Plasma stability (h)
  Plasma Stab(h) % rem/60 min: 85.84%
Metabolic stability (h)
  Met Stab(h) % rem/45 min: 72.3%
α2β1 [1]
  pIC50: > 6.30
Caco-2 permeability
  Papp A→B: 2.7 ×10⁻⁶ cm/s
  Papp B→A: 20.1 ×10⁻⁶ cm/s
[2]
  solubility kinetic: 66.9 µM (≈ 40.4 µg/mL)

## O=C(CCc1ccccc1)Nc1ccc(Cl)c(C(=O)N[C@@H](CNC(=O)N[C@@H]2CCc3ccccc32)C(=O)O)c1Cl [SU15210-0124-01, (S)-2-(2,6-dichloro-3-(3-phenylpropanamido)benzamido)-3-(3-((R)-2,3-dihydro-1H-inden-1-yl)ureido)propanoic Acid]
α2β1 [1]
  pIC50: > 6.30
α4β1
  pIC50: 4.68

## CN(Cc1ccccc1)C(=O)NC[C@H](NC(=O)c1c(Cl)cccc1Cl)C(=O)O [SU15210-0167-01]
α2β1 [1]
  pIC50: > 6.30
α4β1
  pIC50: 4.08

## O=C(NC[C@H](NC(=O)c1c(Cl)cc2c(c1Cl)CCN(C(=O)c1ccccc1)C2)C(=O)O)N[C@@H]1CCc2ccccc21 [SU15210-0173-01]
Plasma stability (h)
  Plasma Stab(h) % rem/60 min: 108%
Metabolic stability (h)
  Met Stab(h) % rem/45 min: 65%
α2β1 [1]
  pIC50: > 6.30
Caco-2 permeability
  Papp A→B: 0.8 ×10⁻⁶ cm/s
  Papp B→A: 6.8 ×10⁻⁶ cm/s

## O=C(NC[C@H](NC(=O)c1c(Cl)cc(C(=O)NCc2cccc(Cl)c2)cc1Cl)C(=O)O)N[C@@H]1CCc2ccccc21 [SU15210-0185-01, (S)-2-(2,6-dichloro-4-(3-chlorobenzylcarbamoyl)benzamido)-3-(3-((R)-2,3-dihydro-1H-inden-1-yl)ureido)propanoic Acid]
α2β1 [1]
  pIC50: > 6.30
Caco-2 permeability
  Papp A→B: 2.2 ×10⁻⁶ cm/s
  Papp B→A: 5.53 ×10⁻⁶ cm/s

## CN(Cc1ccccc1)C(=O)NC[C@H](NC(=O)c1c(Cl)cc(C(=O)NCc2cccc(O)c2)cc1Cl)C(=O)O [SU15210-0186-01, (S)-3-(3-benzyl-3-methylureido)-2-(2,6-dichloro-4-(3-hydroxybenzylcarbamoyl)benzamido)propanoic Acid]
α2β1 [1]
  pIC50: > 6.30
Caco-2 permeability
  Papp A→B: 2.2 ×10⁻⁶ cm/s
  Papp B→A: 1.5 ×10⁻⁶ cm/s

## CN(Cc1ccccc1)C(=O)NC[C@H](NC(=O)c1c(Cl)cc2c(c1Cl)CCN(Cc1cccc(Cl)c1)C2=O)C(=O)O [SU15210-0242-01, (S)-3-(3-benzyl-3-methylureido)-2-(5,7-dichloro-2-(3-chlorobenzyl)-1-oxo-1,2,3,4-tetrahydroisoquinoline-6-carboxamido)propanoic Acid]
α2β1 [3]
  pIC50: > 6.30

## O=C(NC[C@H](NC(=O)c1c(Cl)cc2c(c1Cl)CCN(Cc1cccc(Cl)c1)C2=O)C(=O)O)N[C@@H]1CCc2ccccc21 [SU15210-0243-01, (2S)-2-[[5,7-dichloro-2-[(3-chlorophenyl)methyl]-1-oxo-3,4-dihydroisoquinoline-6-carbonyl]amino]-3-[[(1R)-indan-1-yl]carbamoylamino]propanoic Acid]
α2β1 [3]
  pIC50: < 5.30

## O=C(NC[C@H](NC(=O)c1c(Cl)cc2c(c1Cl)CCN(Cc1ccc(Cl)cc1)C2=O)C(=O)O)N[C@@H]1CCc2ccccc21 [SU15210-0244-01]
α2β1 [3]
  pIC50: < 5.30

## CN(Cc1ccccc1)C(=O)NC[C@H](NC(=O)c1c(Cl)cc2c(c1Cl)CCN(Cc1ccccc1)C2=O)C(=O)O [SU15210-0245-01, (2S)-2-[(2-benzyl-5,7-dichloro-1-oxo-3,4-dihydroisoquinoline-6-carbonyl)amino]-3-[[benzyl(methyl)carbamoyl]amino]propanoic Acid]
α2β1 [3]
  pIC50: < 5.30

## CN(Cc1ccccc1)C(=O)NC[C@H](NC(=O)c1c(Cl)cc2c(c1Cl)CCN(CC1CC1)C2=O)C(=O)O [SU15210-0251, (2S)-3-[[benzyl(methyl)carbamoyl]amino]-2-[[5,7-dichloro-2-(cyclopropylmethyl)-1-oxo-3,4-dihydroisoquinoline-6-carbonyl]amino]propanoic Acid]
α2β1 [3]
  pIC50: 5.30 to 6.00

## CN(Cc1ccccc1)C(=O)NC[C@H](NC(=O)c1c(Cl)cc2c(c1Cl)CCN(CC#CC1CC1)C2=O)C(=O)O [SU15210-0265, (S)-3-(3-benzyl-3-methylureido)-2-(5,7-dichloro-2-(3-cyclopropylprop-2-ynyl)-1-oxo-1,2,3,4-tetrahydroisoquinoline-6-carboxamido)propanoic Acid]
α2β1 [3]
  pIC50: < 5.30

## CCOC(=O)[C@H](CNC(=O)N(C)Cc1ccccc1)NC(=O)c1c(Cl)cc2c(c1Cl)CCN(Cc1cccc(Cl)c1)C2=O [SU15210-0270-01, (S)-ethyl 3-(3-benzyl-3-methylureido)-2-(5,7-dichloro-2-(3-chlorobenzyl)-1-oxo-1,2,3,4-tetrahydroisoquinoline-6-carboxamido)propanoate]
α2β1 [3]
  pIC50: 6.00 to 6.30

## CCOC(=O)[C@H](CNC(=O)N[C@@H]1CCc2ccccc21)NC(=O)c1c(Cl)cc(C(=O)NCc2cccc(Cl)c2)cc1Cl [SU15210-0280, (S)-ethyl 2-(2,6-dichloro-4-(3-chlorobenzylcarbamoyl)benzamido)-3-(3-((R)-2,3-dihydro-1H-inden-1-yl)ureido)propanoate]
α2β1 [3]
  pIC50: 5.30 to 6.00

## O=C(NC[C@H](NC(=O)c1c(Cl)cc(C(=O)NCc2cccc(F)c2)cc1Cl)C(=O)O)N[C@@H]1CCc2ccccc21 [SU15210-0289, (S)-2-(2,6-dichloro-4-(3-fluorobenzylcarbamoyl)benzamido)-3-(3-((R)-2,3-dihydro-1H-inden-1-yl)ureido)propanoic Acid]
α2β1 [3]
  pIC50: > 6.30

## COc1cccc(CNC(=O)c2cc(Cl)c(C(=O)N[C@@H](CNC(=O)N[C@@H]3CCc4ccccc43)C(=O)O)c(Cl)c2)c1 [SU15210-0290-01, (S)-2-(2,6-dichloro-4-(3-methoxybenzylcarbamoyl)benzamido)-3-(3-((R)-2,3-dihydro-1H-inden-1-yl)ureido)propanoic Acid]
α2β1 [3]
  pIC50: > 6.30

## O=C(NC[C@H](NC(=O)c1c(Cl)cc(C(=O)NCc2ccc(Cl)c(Cl)c2)cc1Cl)C(=O)O)N[C@@H]1CCc2ccccc21 [SU15210-0291, (S)-2-(2,6-dichloro-4-(3,4-dichlorobenzylcarbamoyl)benzamido)-3-(3-((R)-2,3-dihydro-1H-inden-1-yl)ureido)propanoic Acid]
α2β1 [3]
  pIC50: > 6.30

## N#Cc1cccc(CNC(=O)c2cc(Cl)c(C(=O)N[C@@H](CNC(=O)N[C@@H]3CCc4ccccc43)C(=O)O)c(Cl)c2)c1 [SU15210-0292, (S)-2-(2,6-dichloro-4-(3-cyanobenzylcarbamoyl)benzamido)-3-(3-((R)-2,3-dihydro-1H-inden-1-yl)ureido)propanoic Acid]
α2β1 [3]
  pIC50: > 6.30

## O=C(NC[C@H](NC(=O)c1c(Cl)cc(C(=O)NCc2cccc(C(F)(F)F)c2)cc1Cl)C(=O)O)N[C@@H]1CCc2ccccc21 [SU15210-0293, (S)-2-(2,6-dichloro-4-(3-(trifluoromethyl)benzylcarbamoyl)benzamido)-3-(3-((R)-2,3-dihydro-1H-inden-1-yl)ureido)propanoic Acid]
α2β1 [3]
  pIC50: > 6.30

## O=C(NC[C@H](NC(=O)c1c(Cl)cc(C(=O)NCc2cccc(Cl)c2)cc1Cl)C(=O)O)N[C@@H]1CCc2cc(Cl)ccc21 [SU15210-0294, (S)-3-(3-((R)-5-chloro-2,3-dihydro-1H-inden-1-yl)ureido)-2-(2,6-dichloro-4-(3-chlorobenzylcarbamoyl)benzamido)propanoic Acid]
α2β1 [3]
  pIC50: 6.00 to 6.30
